Results from patent US20240383915A1, “OXAZEPINE COMPOUNDS AND USES THEREOF IN THE TREATMENT OF CANCER” (Genentech, Inc., priority 2021, published 2024).

Experiments:
[1] = target: KRas(G12V) (Homo sapiens (Human), UniProt P01116, G12V); experiment: KRas(G12V) GDP HTRF (BODIPY-GDP exchange TR-FRET); type: biochemical
[2] = system: SW480 cells; experiment: SW480 proliferation assay; type: cell-based; settings: Homo sapiens, SW480, SW480; read-out: SW480 Prolif IC50 (G12V)
[3] = system: PC-9 cells; experiment: PC9 proliferation assay; type: cell-based, human; settings: Homo sapiens, PC-9, PC9; read-out: PC9 Prolif IC50 (G12V)
[4] = target: KRas (Homo sapiens (Human), UniProt P01116); experiment: KRas GDP HTRF (BODIPY-GDP exchange TR-FRET); type: biochemical
Procedure, shortened: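 Inhibition of SOS1-mediated exchange of BODIPY-GDP on KRAS G12D, started with 3 nM recombinant human SOS1 and 300 nM BODIPY-GDP and read after 60 min. TR-FRET excitation 337 nm, ratio 520/490 nm ×10,000. IC50 from 4-parameter Hill fit of normalized data.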

Chain of KRas (P01116-2 other isoform, or with tags, fused parts or gaps): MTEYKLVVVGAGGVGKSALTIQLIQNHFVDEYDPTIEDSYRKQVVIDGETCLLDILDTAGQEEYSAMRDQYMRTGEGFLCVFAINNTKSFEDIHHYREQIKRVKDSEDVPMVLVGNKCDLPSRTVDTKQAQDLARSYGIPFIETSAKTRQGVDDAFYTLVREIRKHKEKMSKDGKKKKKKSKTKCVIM
Chain of KRas(G12V) (P01116-2 other isoform, or with tags, fused parts or gaps G12V): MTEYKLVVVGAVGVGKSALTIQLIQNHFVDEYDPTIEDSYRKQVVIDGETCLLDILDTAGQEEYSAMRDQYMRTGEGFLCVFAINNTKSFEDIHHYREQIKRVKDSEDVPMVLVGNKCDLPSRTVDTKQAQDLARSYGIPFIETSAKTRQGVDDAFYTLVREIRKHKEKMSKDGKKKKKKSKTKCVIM

| IC50 [1] | IC50 [2] | IC50 [3] | IC50 [4] | Structure (SMILES) |
| --- | --- | --- | --- | --- |
| 0.05 nM | 16 nM | 3000 nM | 0.14 nM | C[C@H](c1cccnc1N)N1CCOc2c(Cl)c(-c3cc(O)cc4ccccc34)c(F)c3nc(OC[C@@]45CCCN4C[C@H](F)C5)nc1c23 [Example 119, 4-(4-((R)-1-(2-aminopyridin-3-yl)ethyl)-8-chloro-10-fluoro-2-(((2R,7aS)-2-fluorotetrahydro-1H-pyrrolizin-7a(5H)-yl)methoxy)-5,6-dihydro-4H-[1,4]oxazepino[5,6,7-de]quinazolin-9-yl)naphthalen-2-ol] |
| 0.08 nM | 590 nM | 1600 nM | 0.21 nM | Cc1cc(N)nc(-c2c(Cl)c3c4c(nc(OCC5CCN(C)C5)nc4c2F)N([C@H](C)c2cccnc2N)CCO3)c1C(F)(F)F (stereo partly drawn) [Example 134, 6-((9R)-4-((R)-1-(2-aminopyridin-3-yl)ethyl)-8-chloro-10-fluoro-2-((1-methylpyrrolidin-3-yl)methoxy)-5,6-dihydro-4H-[1,4]oxazepino[5,6,7-de]quinazolin-9-yl)-4-methyl-5-(trifluoromethyl)pyridin-2-amine] |
| 0.07 nM | 140 nM | 1100 nM | 0.159 nM | Cc1cc(N)nc(-c2c(Cl)c3c4c(nc(OCC5CCCN(C)C5)nc4c2F)N([C@H](C)c2cccnc2N)CCO3)c1C(F)(F)F (stereo partly drawn) [Example 137, 6-((9R)-4-((R)-1-(2-aminopyridin-3-yl)ethyl)-8-chloro-10-fluoro-2-((1-methylpiperidin-3-yl)methoxy)-5,6-dihydro-4H-[1,4]oxazepino[5,6,7-de]quinazolin-9-yl)-4-methyl-5-(trifluoromethyl)pyridin-2-amine] |
| 0.08 nM | 240 nM | 830 nM | 0.205 nM | Cc1cc(N)nc(-c2c(Cl)c3c4c(nc(OCCC5CCCN5C)nc4c2F)N([C@H](C)c2cccnc2N)CCO3)c1C(F)(F)F (stereo partly drawn) [Example 139, 6-((9R)-4-((R)-1-(2-aminopyridin-3-yl)ethyl)-8-chloro-10-fluoro-2-(2-(1-methylpyrrolidin-2-yl)ethoxy)-5,6-dihydro-4H-[1,4]oxazepino[5,6,7-de]quinazolin-9-yl)-4-methyl-5-(trifluoromethyl)pyridin-2-amine] |
| 0.17 nM | 51 nM | 3800 nM | 0.6 nM | Cc1cc(N)nc(-c2c(Cl)c3c4c(nc(OCC5COCCN5C)nc4c2F)N([C@H](C)c2cccnc2N)CCO3)c1C(F)(F)F (stereo partly drawn) [Example 140, 6-((9R)-4-((R)-1-(2-aminopyridin-3-yl)ethyl)-8-chloro-10-fluoro-2-((4-methylmorpholin-3-yl)methoxy)-5,6-dihydro-4H-[1,4]oxazepino[5,6,7-de]quinazolin-9-yl)-4-methyl-5-(trifluoromethyl)pyridin-2-amine] |
| 0.24 nM | 76 nM | 8100 nM | 0.77 nM | Cc1cc(N)nc(-c2c(Cl)c3c4c(nc(OCC56COC(C5)C6)nc4c2F)N([C@H](C)c2cccnc2N)CCO3)c1C(F)(F)F [Example 141, 6-((R)-2-((2-oxabicyclo[2.1.1]hexan-4-yl)methoxy)-4-((R)-1-(2-aminopyridin-3-yl)ethyl)-8-chloro-10-fluoro-5,6-dihydro-4H-[1,4]oxazepino[5,6,7-de]quinazolin-9-yl)-4-methyl-5-(trifluoromethyl)pyridin-2-amine] |
| 0.21 nM | 74 nM | 16000 nM | 0.78 nM | COCC12COC(COc3nc4c5c(c(Cl)c(-c6nc(N)cc(C)c6C(F)(F)F)c(F)c5n3)OCCN4[C@H](C)c3cccnc3N)(C1)C2 [Example 149, 6-((R)-4-((R)-1-(2-aminopyridin-3-yl)ethyl)-8-chloro-10-fluoro-2-((4-(methoxymethyl)-2-oxabicyclo[2.1.1]hexan-1-yl)methoxy)-5,6-dihydro-4H-[1,4]oxazepino[5,6,7-de]quinazolin-9-yl)-4-methyl-5-(trifluoromethyl)pyridin-2-amine] |
